Assay results: ChEMBL document CHEMBL4507264, “Data for DCP probe BAY-7598” (2021)

Legend:
[1] = target: Dual specificity testis-specific protein kinase 1 (Homo sapiens) (UniProt Q15569); settings: Compound concentration 1000.0 nM
[2] = target: Sodium-dependent serotonin transporter (Homo sapiens) (UniProt P31645); settings: Compound concentration 10.0 uM
[3] = target: Cyclin-dependent kinase 3 (Homo sapiens) (UniProt Q00526); settings: Compound concentration 1000.0 nM
[4] = system: Phosphatidylinositol 4,5-bisphosphate 3-kinase catalytic subunit alpha isoform (Homo sapiens), P42336 [E545A]; settings: Compound concentration 1000.0 nM
[5] = target: Ribosomal protein S6 kinase alpha-4 (Homo sapiens) (UniProt O75676); settings: Compound concentration 1000.0 nM
[6] = target: Cyclin-dependent kinase 4 (Homo sapiens) (UniProt P11802); settings: Compound concentration 1000.0 nM
[7] = target: Ephrin type-B receptor 4 (Homo sapiens) (UniProt P54760); settings: Compound concentration 1000.0 nM
[8] = target: Myosin-IIIb (Homo sapiens) (UniProt Q8WXR4); settings: Compound concentration 1000.0 nM
Sequence of Myosin-IIIb (Homo sapiens) (Q8WXR4 whole entry): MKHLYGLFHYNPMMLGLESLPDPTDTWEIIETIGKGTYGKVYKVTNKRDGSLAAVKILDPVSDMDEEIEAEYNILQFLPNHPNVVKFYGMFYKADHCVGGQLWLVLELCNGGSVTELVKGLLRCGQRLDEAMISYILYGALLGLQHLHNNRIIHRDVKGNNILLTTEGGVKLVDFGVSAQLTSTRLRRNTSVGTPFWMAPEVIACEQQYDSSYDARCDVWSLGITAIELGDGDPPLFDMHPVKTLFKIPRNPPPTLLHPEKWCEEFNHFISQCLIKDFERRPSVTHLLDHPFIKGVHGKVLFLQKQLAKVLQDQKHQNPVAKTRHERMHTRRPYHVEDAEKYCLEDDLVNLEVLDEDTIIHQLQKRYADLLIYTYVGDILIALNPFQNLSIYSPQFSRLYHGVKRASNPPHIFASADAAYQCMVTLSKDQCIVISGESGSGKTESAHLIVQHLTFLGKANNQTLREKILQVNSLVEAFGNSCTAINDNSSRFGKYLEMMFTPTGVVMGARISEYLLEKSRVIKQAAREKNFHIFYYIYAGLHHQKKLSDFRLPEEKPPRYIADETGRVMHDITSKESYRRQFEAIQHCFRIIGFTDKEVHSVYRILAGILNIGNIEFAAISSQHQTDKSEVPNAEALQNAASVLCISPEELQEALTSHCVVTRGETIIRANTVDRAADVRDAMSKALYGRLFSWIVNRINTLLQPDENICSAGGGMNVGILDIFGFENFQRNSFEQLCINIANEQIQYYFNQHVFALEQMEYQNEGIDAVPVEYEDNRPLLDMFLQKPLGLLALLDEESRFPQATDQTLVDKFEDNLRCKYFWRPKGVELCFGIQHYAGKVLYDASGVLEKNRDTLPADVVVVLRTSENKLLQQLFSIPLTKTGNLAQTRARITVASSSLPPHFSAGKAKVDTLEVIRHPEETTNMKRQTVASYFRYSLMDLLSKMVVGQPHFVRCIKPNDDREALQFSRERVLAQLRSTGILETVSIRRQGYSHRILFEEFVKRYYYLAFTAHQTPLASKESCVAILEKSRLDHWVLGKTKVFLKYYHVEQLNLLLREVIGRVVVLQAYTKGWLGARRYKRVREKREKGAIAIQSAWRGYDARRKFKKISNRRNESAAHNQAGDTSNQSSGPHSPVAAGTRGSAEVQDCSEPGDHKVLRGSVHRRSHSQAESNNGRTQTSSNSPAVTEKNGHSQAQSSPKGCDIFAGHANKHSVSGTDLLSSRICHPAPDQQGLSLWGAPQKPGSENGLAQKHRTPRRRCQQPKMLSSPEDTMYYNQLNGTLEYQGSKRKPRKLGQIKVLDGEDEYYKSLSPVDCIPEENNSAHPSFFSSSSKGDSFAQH

[9] = target: Mitogen-activated protein kinase 14 (Homo sapiens) (UniProt Q16539); settings: Compound concentration 1000.0 nM
[10] = target: TGF-beta receptor type-2 (Homo sapiens) (UniProt P37173); settings: Compound concentration 1000.0 nM
[11] = target: Fibroblast growth factor receptor 3 (Homo sapiens) (UniProt P22607); settings: Compound concentration 1000.0 nM
[12] = system: Mast/stem cell growth factor receptor Kit (Homo sapiens), P10721 [A829P]; settings: Compound concentration 1000.0 nM
[13] = target: Non-receptor tyrosine-protein kinase TYK2 (Homo sapiens) (UniProt P29597); settings: Compound concentration 1000.0 nM
[14] = target: T1, 5-hydroxytryptamine receptor 1A (Homo sapiens) (UniProt P08908); settings: Compound concentration 10.0 uM
T1 sequence (whole entry): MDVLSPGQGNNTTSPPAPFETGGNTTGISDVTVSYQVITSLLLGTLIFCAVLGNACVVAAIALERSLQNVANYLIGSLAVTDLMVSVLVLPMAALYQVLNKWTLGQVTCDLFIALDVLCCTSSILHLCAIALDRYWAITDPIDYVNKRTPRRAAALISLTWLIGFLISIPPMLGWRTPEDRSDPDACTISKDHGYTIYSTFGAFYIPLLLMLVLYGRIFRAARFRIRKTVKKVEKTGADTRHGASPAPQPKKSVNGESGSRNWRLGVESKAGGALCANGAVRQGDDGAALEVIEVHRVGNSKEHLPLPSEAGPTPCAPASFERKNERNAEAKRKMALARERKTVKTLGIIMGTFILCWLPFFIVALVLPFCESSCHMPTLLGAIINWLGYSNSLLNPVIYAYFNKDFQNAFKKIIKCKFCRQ

[15] = target: 5-hydroxytryptamine receptor 1E (Homo sapiens) (UniProt P28566); settings: Compound concentration 10.0 uM
[16] = target: SRSF protein kinase 3 (Homo sapiens) (UniProt Q9UPE1); settings: Compound concentration 1000.0 nM
[17] = target: Testis-specific serine/threonine-protein kinase 1 (Homo sapiens) (UniProt Q9BXA7); settings: Compound concentration 1000.0 nM
[18] = target: Platelet-derived growth factor receptor beta (Homo sapiens) (UniProt P09619); settings: Compound concentration 1000.0 nM
Sequence of Platelet-derived growth factor receptor beta (Homo sapiens) (P09619 whole entry): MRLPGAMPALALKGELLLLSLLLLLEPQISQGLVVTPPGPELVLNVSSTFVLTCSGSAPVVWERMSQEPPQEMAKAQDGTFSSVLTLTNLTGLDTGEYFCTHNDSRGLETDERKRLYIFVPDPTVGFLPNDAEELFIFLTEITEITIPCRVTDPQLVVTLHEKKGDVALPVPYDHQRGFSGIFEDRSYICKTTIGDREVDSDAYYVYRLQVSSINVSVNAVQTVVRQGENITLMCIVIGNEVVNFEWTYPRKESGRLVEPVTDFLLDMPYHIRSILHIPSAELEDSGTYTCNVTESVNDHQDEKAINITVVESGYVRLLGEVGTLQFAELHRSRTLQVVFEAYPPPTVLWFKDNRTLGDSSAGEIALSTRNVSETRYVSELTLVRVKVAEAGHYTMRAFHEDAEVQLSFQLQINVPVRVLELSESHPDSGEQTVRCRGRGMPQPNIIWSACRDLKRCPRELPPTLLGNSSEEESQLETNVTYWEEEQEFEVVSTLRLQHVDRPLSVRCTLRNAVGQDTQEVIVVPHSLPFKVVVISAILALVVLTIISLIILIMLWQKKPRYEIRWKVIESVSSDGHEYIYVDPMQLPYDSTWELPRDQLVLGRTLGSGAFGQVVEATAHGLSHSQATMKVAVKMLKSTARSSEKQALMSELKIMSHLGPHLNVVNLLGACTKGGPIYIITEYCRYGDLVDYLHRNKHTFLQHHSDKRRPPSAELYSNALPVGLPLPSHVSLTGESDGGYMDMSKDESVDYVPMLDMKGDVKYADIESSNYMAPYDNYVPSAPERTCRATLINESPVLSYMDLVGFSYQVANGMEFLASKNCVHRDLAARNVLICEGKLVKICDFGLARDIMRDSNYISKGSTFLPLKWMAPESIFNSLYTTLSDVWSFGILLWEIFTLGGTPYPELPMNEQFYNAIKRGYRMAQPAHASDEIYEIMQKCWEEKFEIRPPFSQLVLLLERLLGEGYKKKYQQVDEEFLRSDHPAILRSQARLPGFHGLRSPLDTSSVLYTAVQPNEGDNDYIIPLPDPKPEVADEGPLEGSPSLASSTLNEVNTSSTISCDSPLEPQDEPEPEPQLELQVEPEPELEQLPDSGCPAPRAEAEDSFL

[19] = target: cAMP-dependent protein kinase catalytic subunit PRKX (Homo sapiens) (UniProt P51817); settings: Compound concentration 1000.0 nM
[20] = target: cGMP-dependent protein kinase 1 (Homo sapiens) (UniProt Q13976); settings: Compound concentration 1000.0 nM
[21] = target: 5'-AMP-activated protein kinase catalytic subunit alpha-1 (Homo sapiens) (UniProt Q13131); settings: Compound concentration 1000.0 nM
Sequence of 5'-AMP-activated protein kinase catalytic subunit alpha-1 (Homo sapiens) (Q13131 whole entry, looked up): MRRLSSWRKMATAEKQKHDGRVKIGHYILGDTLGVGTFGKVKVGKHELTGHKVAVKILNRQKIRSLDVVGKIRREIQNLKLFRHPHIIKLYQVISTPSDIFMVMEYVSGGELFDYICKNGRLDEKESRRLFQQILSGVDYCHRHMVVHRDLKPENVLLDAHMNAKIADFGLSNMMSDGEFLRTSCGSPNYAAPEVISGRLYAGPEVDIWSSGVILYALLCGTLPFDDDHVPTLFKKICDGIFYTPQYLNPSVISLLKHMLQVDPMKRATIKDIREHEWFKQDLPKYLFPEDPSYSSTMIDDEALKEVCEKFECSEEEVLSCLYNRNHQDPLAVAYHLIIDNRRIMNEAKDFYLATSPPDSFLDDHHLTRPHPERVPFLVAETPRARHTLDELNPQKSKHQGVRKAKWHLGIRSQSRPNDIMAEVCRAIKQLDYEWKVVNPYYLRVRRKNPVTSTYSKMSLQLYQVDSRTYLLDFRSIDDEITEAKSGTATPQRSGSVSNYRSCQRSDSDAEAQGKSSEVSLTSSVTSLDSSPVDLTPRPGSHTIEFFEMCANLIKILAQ

[22] = system: Tyrosine-protein kinase ABL1 (Homo sapiens), P00519 [H396P]; settings: Compound concentration 1000.0 nM
[23] = target: Serine/threonine-protein kinase haspin (Homo sapiens) (UniProt Q8TF76); settings: Compound concentration 1000.0 nM
[24] = target: STE20-like serine/threonine-protein kinase (Homo sapiens) (UniProt Q9H2G2); settings: Compound concentration 1000.0 nM
[25] = target: BMP-2-inducible protein kinase (Homo sapiens) (UniProt Q9NSY1); settings: Compound concentration 1000.0 nM
[26] = target: Mitogen-activated protein kinase 6 (Homo sapiens) (UniProt Q16659); settings: Compound concentration 1000.0 nM
[27] = target: Serine/threonine-protein kinase RIO2 (Homo sapiens) (UniProt Q9BVS4); settings: Compound concentration 1000.0 nM
[28] = target: Mitogen-activated protein kinase kinase kinase 11 (Homo sapiens) (UniProt Q16584); settings: Compound concentration 1000.0 nM
[29] = target: Mitogen-activated protein kinase kinase kinase 20 (Homo sapiens) (UniProt Q9NYL2); settings: Compound concentration 1000.0 nM
[30] = target: Tyrosine-protein kinase receptor TYRO3 (Homo sapiens) (UniProt Q06418); settings: Compound concentration 1000.0 nM
Sequence of Tyrosine-protein kinase receptor TYRO3 (Homo sapiens) (Q06418 whole entry, the tested form may be a part): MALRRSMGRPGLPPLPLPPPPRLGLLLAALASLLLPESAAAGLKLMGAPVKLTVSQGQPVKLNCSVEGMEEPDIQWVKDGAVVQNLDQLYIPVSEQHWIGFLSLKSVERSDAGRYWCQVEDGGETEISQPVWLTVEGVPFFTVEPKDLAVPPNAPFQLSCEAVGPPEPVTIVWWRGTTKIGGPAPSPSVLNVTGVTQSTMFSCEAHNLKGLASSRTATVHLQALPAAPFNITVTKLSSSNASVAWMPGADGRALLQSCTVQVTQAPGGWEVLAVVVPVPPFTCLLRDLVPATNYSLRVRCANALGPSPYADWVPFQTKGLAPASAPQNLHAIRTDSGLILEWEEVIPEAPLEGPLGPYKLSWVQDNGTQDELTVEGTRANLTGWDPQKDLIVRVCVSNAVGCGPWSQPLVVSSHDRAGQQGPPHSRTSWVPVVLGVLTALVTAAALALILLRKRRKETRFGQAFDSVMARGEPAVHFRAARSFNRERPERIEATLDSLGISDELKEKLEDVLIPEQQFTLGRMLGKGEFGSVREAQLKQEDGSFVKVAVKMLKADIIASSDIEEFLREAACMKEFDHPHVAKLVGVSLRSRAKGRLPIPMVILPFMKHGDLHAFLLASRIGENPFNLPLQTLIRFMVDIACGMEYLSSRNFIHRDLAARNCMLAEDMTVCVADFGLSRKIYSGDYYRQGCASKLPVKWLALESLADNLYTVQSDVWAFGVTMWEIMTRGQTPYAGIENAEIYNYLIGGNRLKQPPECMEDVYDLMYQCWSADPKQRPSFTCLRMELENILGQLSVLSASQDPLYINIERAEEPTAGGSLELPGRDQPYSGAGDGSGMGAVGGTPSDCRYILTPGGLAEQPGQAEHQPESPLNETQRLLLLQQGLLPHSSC

[31] = target: Discoidin domain-containing receptor 2 (Homo sapiens) (UniProt Q16832); settings: Compound concentration 1000.0 nM
[32] = target: T2, Muscarinic acetylcholine receptor M1 (Homo sapiens) (UniProt P11229); settings: Compound concentration 10.0 uM
T2 sequence (whole entry): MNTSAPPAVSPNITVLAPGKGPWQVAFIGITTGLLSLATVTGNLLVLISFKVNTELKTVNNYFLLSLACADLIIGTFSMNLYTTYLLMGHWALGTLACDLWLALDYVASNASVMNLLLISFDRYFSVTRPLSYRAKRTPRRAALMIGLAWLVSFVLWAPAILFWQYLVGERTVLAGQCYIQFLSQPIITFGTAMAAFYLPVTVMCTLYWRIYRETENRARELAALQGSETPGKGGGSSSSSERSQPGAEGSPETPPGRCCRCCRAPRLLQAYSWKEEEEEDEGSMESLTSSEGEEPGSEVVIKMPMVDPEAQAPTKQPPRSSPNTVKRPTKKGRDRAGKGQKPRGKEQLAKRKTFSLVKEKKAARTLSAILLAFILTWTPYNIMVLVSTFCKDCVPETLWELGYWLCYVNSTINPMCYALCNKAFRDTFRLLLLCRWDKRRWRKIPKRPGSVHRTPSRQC

[33] = target: Activin receptor type-2A (Homo sapiens) (UniProt P27037); settings: Compound concentration 1000.0 nM

Sequence of Cyclin-dependent kinase 3 (Homo sapiens) (Q00526 whole entry, looked up, canonical isoform): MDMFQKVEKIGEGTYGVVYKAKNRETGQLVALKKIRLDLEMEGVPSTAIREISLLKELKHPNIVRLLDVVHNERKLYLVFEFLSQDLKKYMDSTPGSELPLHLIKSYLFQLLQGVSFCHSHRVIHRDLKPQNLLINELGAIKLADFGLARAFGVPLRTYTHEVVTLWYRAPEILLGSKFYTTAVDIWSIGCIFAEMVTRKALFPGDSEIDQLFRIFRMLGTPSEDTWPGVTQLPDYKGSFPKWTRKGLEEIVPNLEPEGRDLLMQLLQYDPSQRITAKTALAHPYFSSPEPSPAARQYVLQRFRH
Sequence of Sodium-dependent serotonin transporter (Homo sapiens) (P31645 whole entry, looked up): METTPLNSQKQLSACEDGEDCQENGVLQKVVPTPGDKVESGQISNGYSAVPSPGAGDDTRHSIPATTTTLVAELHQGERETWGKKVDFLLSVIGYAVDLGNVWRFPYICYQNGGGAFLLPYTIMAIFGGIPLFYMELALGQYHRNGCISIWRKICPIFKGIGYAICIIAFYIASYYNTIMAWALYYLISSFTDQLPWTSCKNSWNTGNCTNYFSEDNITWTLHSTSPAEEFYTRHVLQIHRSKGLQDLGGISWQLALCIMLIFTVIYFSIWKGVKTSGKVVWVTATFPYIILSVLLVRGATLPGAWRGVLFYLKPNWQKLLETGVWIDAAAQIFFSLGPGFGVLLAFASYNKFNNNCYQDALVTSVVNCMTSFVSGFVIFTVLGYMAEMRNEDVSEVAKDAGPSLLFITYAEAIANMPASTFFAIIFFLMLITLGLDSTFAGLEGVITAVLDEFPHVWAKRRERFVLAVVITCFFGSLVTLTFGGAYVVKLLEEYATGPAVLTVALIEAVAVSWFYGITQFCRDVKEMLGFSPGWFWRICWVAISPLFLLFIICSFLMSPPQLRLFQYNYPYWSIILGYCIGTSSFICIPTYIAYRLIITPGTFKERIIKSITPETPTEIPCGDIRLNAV

`O=C(O)[C@@H]1[C@@H](Cn2nnc3ccccc3c2=O)CC[C@H]1C(=O)c1ccc(OCCC2CCOCC2)cc1` [BAY-694] showed a residual activity [1] of 94%, an inhibition [2] of 10.2% and a residual activity [3] of 100%. For the same compound, the residual activity [4] was 100%, the residual activity [5] was 85% and the residual activity [6] was 96%. It also gave a residual activity [7] of 100%, a residual activity [8] of 90% and a residual activity [9] of 89%. It also gave a residual activity [10] of 100%, a residual activity [11] of 100% and a residual activity [12] of 90%. For the same compound, the residual activity [13] was 58%, the inhibition [14] was 7.62% and the inhibition [15] was 3.94%. The residual activity [16] was 100%, the residual activity [17] was 100% and the residual activity [18] was 100%. For the same compound, the residual activity [19] was 100%, the residual activity [20] was 100% and the residual activity [21] was 100%. It also gave a residual activity [22] of 97%, a residual activity [23] of 88% and a residual activity [24] of 88%. The residual activity [25] was 100%, the residual activity [26] was 100% and the residual activity [27] was 88%. It also gave a residual activity [28] of 92%, a residual activity [29] of 91% and a residual activity [30] of 100%. It also gave a residual activity [31] of 100%, an inhibition [32] of 6.4% and a residual activity [33] of 100%.

`O=C(O)[C@H]1[C@H](Cn2nnc3ccccc3c2=O)CC[C@@H]1C(=O)c1ccc(OCCC2CCOCC2)cc1` [BAY-7598] showed a residual activity [1] of 100%, an inhibition [2] of 13.9% and a residual activity [3] of 100%. It also gave a residual activity [4] of 100%, a residual activity [5] of 97% and a residual activity [6] of 89%. It also gave a residual activity [7] of 96%, a residual activity [8] of 69% and a residual activity [9] of 85%. It also gave a residual activity [10] of 100%, a residual activity [11] of 100% and a residual activity [12] of 84%. For the same compound, the residual activity [13] was 41%, the inhibition [14] was -0.18% and the inhibition [15] was 7.37%. The residual activity [16] was 84%, the residual activity [17] was 73% and the residual activity [18] was 88%. The residual activity [19] was 93%, the residual activity [20] was 75% and the residual activity [21] was 100%. The residual activity [22] was 94%, the residual activity [23] was 84% and the residual activity [24] was 96%. For the same compound, the residual activity [25] was 86%, the residual activity [26] was 90% and the residual activity [27] was 100%. For the same compound, the residual activity [28] was 92%, the residual activity [29] was 100% and the residual activity [30] was 100%. The residual activity [31] was 100%, the inhibition [32] was 18% and the residual activity [33] was 87%.
